How the values were obtained:
[1] = system: zymostenol accumulation in EpiSC-derived OPCs (EBP); experiment: GC/MS-based sterol profiling, zymostenol accumulation; type: cell-based, mouse; conditions: Mus musculus, 24 h, 8 doses from 0.15 nM to 333 nM, read-out: mZymo GCMS EC50
Method in brief: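 EpiSC-derived mouse OPCs plated at 100,000 cells/well in N2B27 without growth factors and treated 24 h. Sterols extracted, silylated with BSTFA and measured by GC/MS (EI, full scan), quantified against cholesterol-d7. Zymostenol normalized to levels after 24 h with 100 nM positive control reference.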

EpiSC-derived OPCs = experiment: In vitro phenotypic screening of OPCs, MBP high-content imaging; type: cell-based, mouse; conditions: Mus musculus, 72 h, percentage of MBP+ oligodendrocytes; 3 days; 0.5 nM to 1000 nM; read-out: mOPC EC50
Method in brief: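 Mouse EpiSC-derived OPCs seeded without growth factors and exposed 3 days at 37° C. to 8-point doses, 1000 nM to 0.5 nM final. Fixed cells stained for MBP and DAPI; high-content imaging gave percentage MBP+ oligodendrocytes, with EC50 from Hill-equation fit.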

Row | Compound | EC50 [1] [nM] | EC50 (EpiSC-derived OPCs) [nM]
1 | C[C@@H](Cc1ccnc(C(F)(F)F)c1)CN1CCC2(C1)CS(=O)(=O)C2 (single isomer, unassigned) [Compound 126A] | 3.8 | 10
2 | CC(Cc1ccc(C2CCC2)cc1)CN1CCC2(C1)CS(=O)(=O)C2 (racemic) [Compound 109A, 6-(3-(4-cyclobutylphenyl)-2-methylpropyl)-2-thia-6-azaspiro[3.4]octane 2,2-dioxide] | 1.6 | 1.8
3 | O=S1(=O)CC2(CCN(CCOc3ccc(C(F)(F)F)cc3)C2)C1 [Compound 112, 6-(2-(4-(Trifluoromethyl)phenoxy)ethyl)-2-thia-6-azaspiro[3.4]octane-2,2-dioxide] | 1.3 | 33
4 | C[C@@H](Cc1cnc(C(F)(F)F)nc1)CN1CCC2(CC1)CS(=O)(=O)C2 (single isomer, unassigned) [215A*] | 13 | 23
5 | COC(Cc1ccc(C(F)(F)F)cc1)CN1CCC2(C1)CS(=O)(=O)C2 (racemic) [Example 143, (S)-6-(2-Methoxy-3-(4-(trifluoromethyl)phenyl)propyl)-2-thia-6-azaspiro[3.4]octane 2,2-dioxide and (R)-6-(2-methoxy-3-(4-(trifluoromethyl)phenyl)propyl)-2-thia-6-azaspiro[3.4]octane 2,2-dioxide] | 2.8 | 26
6 | CC(C)(CN1CC[C@@]2(CCS(=O)(=O)C2)C1)Oc1ccc(C(F)(F)F)cc1 (single isomer, unassigned) [Compound 141A] | 5.5 | 21
7 | CC(C)(CN1CC[C@]2(CCS(=O)(=O)C2)C1)Oc1ccc(C(F)(F)F)cc1 (single isomer, unassigned) [Compound 141B] | 49 | 480
8 | O=S1(=O)CC2(CCN(CCOc3ccc(C(F)(F)F)nc3)CC2)C1 [Compound 230, 7-(2-((6-(Trifluoromethyl)pyridin-3-yl)oxy)ethyl)-2-thia-7-azaspiro[3.5]nonane 2,2-dioxide] | 11 | 22
9 | C[C@@H](Cc1ccc(C(F)F)cc1)CN1CCC2(C1)CS(=O)(=O)C2 (single isomer, unassigned) [Compound 128A] | 23 | 370
10 | C[C@@H](CN1CCC2(CC1)CS(=O)(=O)C2)Oc1ccc(F)c(F)c1 (single isomer, unassigned) [221A*] | 1.6 | 4.9
11 | CC(C)(CN1CCC2(C1)CS(=O)(=O)C2)Oc1ccc(C(F)(F)F)nc1 [Example 135, 6-(2-Methyl-2-((6-(trifluoromethyl)pyridin-3-yl)oxy)propyl)-2-thia-6-azaspiro[3.4]octane-2,2-dioxide] | 32 | 140
12 | C[C@@H](Cc1ccc(C(F)(F)F)cc1)CN1CCC2(C1)CS(=O)(=O)C2 (single isomer, unassigned) [114A*] | 0.37 | 2.4
13 | C[C@H](Cc1ccnc(C(F)(F)F)c1)CN1CCC2(C1)CS(=O)(=O)C2 (single isomer, unassigned) [Compound 126B] | 14 | 230
14 | CC(C)(Cc1ccc(C(F)(F)F)nc1)CN1CCC2(C1)CS(=O)(=O)C2 [Example 140, 6-(2,2-Dimethyl-3-(6-(trifluoromethyl)pyridin-3-yl)propyl)-2-thia-6-azaspiro[3.4]octane-2,2-dioxide] | 2.1 | 5
15 | C[C@@H](Cc1cnc(C(F)(F)F)nc1)CN1CCC2(C1)CS(=O)(=O)C2 (single isomer, unassigned) [Compound 145A] | 8.1 | 69
16 | C[C@H](Cc1ccc(C(F)(F)F)cc1)CN1CCC2(C1)CS(=O)(=O)C2 (single isomer, unassigned) [114B*] | 0.82 | 0.72
17 | CC(C)(CN1CCC2(C1)CS(=O)(=O)C2)Oc1ccc(OC(F)(F)F)cc1 [Example 136, 6-(2-Methyl-2-(4-(trifluoromethoxy)phenoxy)propyl)-2-thia-6-azaspiro[3.4]octane 2,2-dioxide] | 3.6 | 12
18 | C[C@@H](Cc1ccc(C(F)(F)F)nc1)CN1CCC2(C1)CS(=O)(=O)C2 (single isomer, unassigned) [118A*] | 2.4 | 8.5

Second part, the compound after the results:

Row | EC50 [1] [nM] | EC50 (EpiSC-derived OPCs) [nM] | Compound
19 | 17 | 51 | C[C@H](Cc1cnc(C(F)(F)F)nc1)CN1CCC2(CC1)CS(=O)(=O)C2 (single isomer, unassigned) [215B*]
20 | 1 | 2.3 | CC(C)(CN1CCC2(CC1)CS(=O)(=O)C2)Oc1ccc(C(F)(F)F)cc1 [Example 138, 7-(2-Methyl-2-(4-(trifluoromethyl)phenoxy)propyl)-2-thia-7-azaspiro[3.5]nonane 2,2-dioxide]
21 | 1.2 | 2.1 | O=S1(=O)CC2(CCN(CC[C@H](F)c3ccc(C(F)(F)F)cc3)C2)C1 (single isomer, unassigned) [Compound 122B]
22 | 1.6 | 7.8 | CC(C)(CN1CCC2(C1)CS(=O)(=O)C2)Oc1cccc(OC(F)(F)F)c1 [Example 131, 6-(2-Methyl-2-(3-(trifluoromethoxy)phenoxy)propyl)-2-thia-6-azaspiro[3.4]octane 2,2-dioxide]
23 | 7.2 | 73 | CC(C)(Cc1ccc(C(F)(F)F)nc1)CN1CC[C@@]2(CCS(=O)(=O)C2)C1 (single isomer, unassigned) [Compound 148B]
24 | 2.9 | 10 | CC(C)(CN1CCC2(C1)CS(=O)(=O)C2)Oc1cccc(C(F)(F)F)c1 [Example 130, 6-(2-Methyl-2-(3-(trifluoromethyl)phenoxy)propyl)-2-thia-6-azaspiro[3.4]octane-2,2-dioxide]
25 | 9.5 | 22 | CCC(C)(C)c1ccc(CC(C)CN2CCC3(C2)CS(=O)(=O)C3)cc1 (racemic) [Compound 107, 6-(2-Methyl-3-(4-(tert-pentyl)phenyl)propyl)-2-thia-6-azaspiro[3.4]octane 2,2-dioxide]
26 | 12 | 9.4 | O=S1(=O)CC2(CCN(CC3(Cc4ccc(C(F)(F)F)nc4)CC3)C2)C1 [Example 157, 6-((1-((6-(Trifluoromethyl)pyridin-3-yl)methyl)cyclopropyl)methyl)-2-thia-6-azaspiro[3.4]octane 2,2-dioxide]
27 | 1.6 | 0.46 | CC(C)(Cc1ccc(C2CCC(F)(F)CC2)c(Cl)c1)CN1CCC2(C1)CS(=O)(=O)C2 [Example 139, 6-(3-(3-Chloro-4-(4,4-difluorocyclohexyl)phenyl)-2,2-dimethylpropyl)-2-thia-6-azaspiro[3.4]octane 2,2-dioxide]
28 | 3.2 | 5.5 | O=S1(=O)CCC2(CC1)CN(CCOc1ccc(C(F)(F)F)cc1)C2 [Example 201, 2-(2-(4-(Trifluoromethyl)phenoxy)ethyl)-7-thia-2-azaspiro[3.5]nonane 7,7-dioxide]
29 | 80 | 390 | CC(C)(CN1CCC2(C1)CS(=O)(=O)C2)Oc1cnc(C(F)(F)F)nc1 [Example 144, 6-(2-Methyl-2-((2-(trifluoromethyl)pyrimidin-5-yl)oxy)propyl)-2-thia-6-azaspiro[3.4]octane-2,2-dioxide]
30 | 19 | 190 | CC(C)(CN1CCC2(C1)CS(=O)(=O)C2)Oc1ccc(C2CCC2)cc1 [Example 129, 6-(2-(4-Cyclobutylphenoxy)-2-methylpropyl)-2-thia-6-azaspiro[3.4]octane-2,2-dioxide]

— US20240400579A1, “SPIROCYCLIC MODULATORS OF CHOLESTEROL BIOSYNTHESIS AND THEIR USE FOR PROMOTING REMYELINATION” (GENENTECH, INC., priority 2021, published 2024)
